Among the data in patent publication US11866430B2, “Naphthyridinone compounds useful as T cell activators” (priority 2018, dated 2024) are IC50 values, retold here.

Structures are written as SMILES. Read-outs that look alike come from different tables or passages of the source.

The subject of assay [1] is pre-activated CD4 T cells and Raji cells. As to the kind of experiment: Raji CD4 T Cell IL2 Assay. Format: cell-based.
In assay [2] the target is T1, human DGKα (Homo sapiens (Human), UniProt P23743). As to the kind of experiment: DGKα LIPGLO assay (extruded liposome substrate). Format: biochemical. As to the method: The DGKα and DGKζ reactions were performed using either extruded liposome (DGKα and DGKζ LIPGLO assays) or detergent/lipid micelle substrate (DGKα and DGKζ assays). The reactions were carried out in 50 mM MOPS pH 7.5, 100 mM NaCl, 10 mM MgCl2, 1 μM CaCl2, and 1 mM DTT (assay buffer). The reactions using a detergent/lipid micelle substrate also contained 50 mM octyl B-D-glucopyranoside. […] The lipid substrate concentrations were […], 0.25 mM DAG, and 2.75 mM PC for the extruded liposome reactions.
T1 sequence (P23743 other isoform, or with tags, fused parts or gaps): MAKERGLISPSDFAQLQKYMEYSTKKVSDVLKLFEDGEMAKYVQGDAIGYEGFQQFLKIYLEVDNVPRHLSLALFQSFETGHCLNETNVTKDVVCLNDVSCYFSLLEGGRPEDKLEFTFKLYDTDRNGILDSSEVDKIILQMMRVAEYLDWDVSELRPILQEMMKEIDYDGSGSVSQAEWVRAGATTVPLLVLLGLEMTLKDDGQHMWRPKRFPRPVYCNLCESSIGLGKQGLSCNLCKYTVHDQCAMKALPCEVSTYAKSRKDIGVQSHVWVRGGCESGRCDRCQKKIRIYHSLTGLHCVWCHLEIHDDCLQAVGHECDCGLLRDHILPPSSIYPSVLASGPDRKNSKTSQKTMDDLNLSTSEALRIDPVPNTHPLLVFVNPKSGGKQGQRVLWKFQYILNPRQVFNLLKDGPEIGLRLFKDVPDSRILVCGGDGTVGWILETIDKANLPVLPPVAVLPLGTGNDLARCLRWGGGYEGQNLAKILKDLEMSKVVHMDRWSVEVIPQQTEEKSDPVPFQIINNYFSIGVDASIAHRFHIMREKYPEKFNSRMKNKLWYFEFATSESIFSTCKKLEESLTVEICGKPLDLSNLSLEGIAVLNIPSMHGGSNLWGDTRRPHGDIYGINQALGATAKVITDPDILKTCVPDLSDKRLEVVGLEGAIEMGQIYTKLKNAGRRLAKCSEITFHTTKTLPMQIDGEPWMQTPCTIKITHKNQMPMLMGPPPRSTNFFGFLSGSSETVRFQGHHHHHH
The compound inhibition studies were carried out as follows: 50 nL droplets of each test compound (top concentration 10 mM with 11 point, 3-fold dilution series for each compound) solubilized in DMSO were transferred to wells of a white 1536 well plate (Corning 3725). A 5 mL enzyme/substrate solution at 2× final reaction concentration was prepared by combining 2.5 mL 4× enzyme solution (20 nM DGKα or DGKζ (prepared as described below) in assay buffer) and 2.5 mL of either 4× liposome or 4× detergent/lipid micelle solution (compositions described below) and incubated at room temperature for 10 minutes. Next, 1 μL 2× enzyme/substrate solution was added to wells containing the test compound and reactions were initiated with the addition of 1 μL 300 uM ATP. The reactions were allowed to proceed for 1 hr, after which 2 μL Glo Reagent (Promega V9101) was added and incubated for 40 minutes. Next, 4 μL Kinase Detection Reagent was added and incubated for 30 minutes. Luminescence was recorded using an EnVision microplate reader. […] The compounds were evaluated at 11 concentrations to determine IC50.
The PC, DAG, and PS were dissolved in chloroform, combined, and dried in vacuo to a thin film. The lipids were hydrated to 20 mM in 50 mM MOPS pH 7.5, 100 mM NaCl, 5 mM MgCl2, and were freeze-thawed five times. The lipid suspension was extruded through a 100 nm polycarbonate filter eleven times. […] The liposome preparation was stored at 4° C. for as long as four weeks.
Human DGK-alpha-TVMV-His-pFBgate and human DCK-zeta-transcript variant-2-TVMV-His-pFBgate baculovirus samples were generated using the Bac-to-Bac baculovirus expression system (Invitrogen) according to the manufacturer's protocol. The DNA used for expression of DGK-alpha and DGK-zeta have SEQ ID NOs: 1 and 3, respectively. Baculovirus amplification was achieved using infected Sf9 cells at 1:1500 virus/cell ratios, and grown for 65 hours at 27° C. post-transfection.
The expression scale up for each protein was carried out in the Cellbag 50 L WAVE-Bioreactor System 20/50 from GE Healthcare Bioscience. 12 L of 2×10^6 cells/mL Sf9 cells (Expression System, Davis, Calif.) grown in ESF921 insect medium (Expression System) were infected with virus stock at 1:200 virus/cell ratios, and grown for 66-68 hours at 27° C. post-infection. The infected cell culture was harvested by centrifugation at 2000 rpm for 20 min 4° C. in a SORVALL® RC12BP centrifuge. The cell pellets were stored at −70° C. until purification.
Full length human DGKα and DGKζ, each expressed containing a TVMV-cleavable C-terminal Hexa-His tag sequence (SEQ ID NOs: 2 and 4, respectively) and produced as described above, were purified from Sf) baculovirus-infected insect cell paste. The cells were lysed using nitrogen cavitation method with a nitrogen bomb (Parr Instruments), and the lysates were clarified by centrifugation. […] The three steps column chromatography included nickel affinity resin capture (i.e. HisTrap FF crude, GE Healthcare), followed by size exclusion chromatography (i.e. HiLoad 26/600 Superdex 200 prep grade, GE Healthcare for DGK-alpha, and HiPrep 26/600 Sephacryl S 300_HR, GE Healthcare for DGK-zeta). The third step was ion exchange chromatography, and differed for the two isoforms.

Assay [3] deals with T2, human DGKζ (Homo sapiens (Human), UniProt Q13574). As to the kind of experiment: DGKζ LIPGLO assay (extruded liposome substrate). Format: biochemical. The settings on record: extruded liposome substrate; read-out: DGKζ LIPGLO IC50. A digest of the protocol:
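Recombinant DGKζ (Sf9-expressed, Ni/SEC/SP-purified) preincubated 10 min with extruded 100 nm PC/DAG/PS liposomes in 50 mM MOPS pH 7.5, 100 mM NaCl, 10 mM MgCl2, 1 μM CaCl2, 1 mM DTT. Started with 300 uM ATP solution (stock, pre-addition); 1 hr reaction. ADP-Glo luminescence; IC50 from 11 concentrations.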

The target in assay [4] is T2, human DGKζ. As to the kind of experiment: DGKζ assay (detergent/lipid micelle substrate). It is filed as biochemical. As to conditions: detergent/lipid micelle substrate; read-out: DGKζ IC50. A digest of the protocol: (§1)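 Full-length human DGKζ (and DGKα), C-terminal His-tagged, Sf9-expressed, with phosphatidylserine/DAG micelles in 50 mM octyl glucoside; buffer 50 mM MOPS pH 7.5, 100 mM NaCl, 10 mM MgCl2, 1 μM CaCl2, 1 mM DTT.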

Assay [5] concerns the target T1, human DGKα. As to the kind of experiment: biochemical. As to conditions: detergent/lipid micelle substrate; read-out: DGKα IC50. A digest of the protocol: as §1

T2 sequence (Q13574 other isoform, or with tags, fused parts or gaps): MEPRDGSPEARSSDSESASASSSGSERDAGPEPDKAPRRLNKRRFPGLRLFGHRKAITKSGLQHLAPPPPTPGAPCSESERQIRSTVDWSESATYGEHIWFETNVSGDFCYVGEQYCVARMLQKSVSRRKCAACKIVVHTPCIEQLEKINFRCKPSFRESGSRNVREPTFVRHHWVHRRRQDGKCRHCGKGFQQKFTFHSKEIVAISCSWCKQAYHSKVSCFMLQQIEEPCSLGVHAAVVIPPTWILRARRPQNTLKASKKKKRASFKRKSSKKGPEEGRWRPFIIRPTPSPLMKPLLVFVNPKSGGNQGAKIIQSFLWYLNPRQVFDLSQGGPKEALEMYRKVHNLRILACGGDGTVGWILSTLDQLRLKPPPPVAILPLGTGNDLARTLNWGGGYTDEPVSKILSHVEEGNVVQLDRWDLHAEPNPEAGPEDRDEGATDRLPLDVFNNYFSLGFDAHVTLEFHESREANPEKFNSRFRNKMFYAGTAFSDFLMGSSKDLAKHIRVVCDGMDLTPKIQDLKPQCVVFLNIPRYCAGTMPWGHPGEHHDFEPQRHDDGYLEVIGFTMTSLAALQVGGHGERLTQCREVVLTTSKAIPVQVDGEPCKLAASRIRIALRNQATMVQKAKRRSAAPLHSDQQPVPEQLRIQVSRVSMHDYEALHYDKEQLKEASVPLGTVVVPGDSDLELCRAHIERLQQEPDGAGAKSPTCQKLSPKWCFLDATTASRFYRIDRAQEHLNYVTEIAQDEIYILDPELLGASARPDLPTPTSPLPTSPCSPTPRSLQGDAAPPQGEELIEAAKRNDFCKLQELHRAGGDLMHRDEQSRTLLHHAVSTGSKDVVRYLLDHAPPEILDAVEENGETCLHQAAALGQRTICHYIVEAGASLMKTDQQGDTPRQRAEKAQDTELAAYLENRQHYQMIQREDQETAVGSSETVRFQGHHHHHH

Broadly, the IC50 is the midpoint of a concentration-inhibition curve. On to `Cc1cccc(Cl)c1CN1CCN(c2c(C#N)c(=O)n(C)c3ccc(Cl)nc23)CC1` [Example 419, 6-chloro-4-{4-[(2-chloro-6-methylphenyl)methyl]piperazin-1-yl}-1-methyl-2-oxo-1,2-dihydro-1,5-naphthyridine-3-carbonitrile], for which the IC50 in assay [1] (Homo sapiens, Raji) is 0.29 µM; against human DGKα [2], 49 µM; at human DGKζ [3] it was 15 µM; at human DGKζ [4], more than 81 µM; at human DGKα [5], 81 µM.

For `Cn1c(=O)c([N+](=O)[O-])c(N2CCN(C(c3ccc(F)cc3)c3ccc(F)cc3)CC2)c2ncccc21` [Example 3, 4-(4-(bis(4-fluorophenyl)methyl)piperazin-1-yl)-1-methyl-3-nitro-1,5-naphthyridin-2(1H)-one], the IC50 was 0.31 µM in assay [1] (Homo sapiens, Raji); 3.8 µM against human DGKα [2]; 2.3 µM on human DGKζ [3]; more than 240 µM at human DGKζ [4]; 2.1 µM at human DGKα [5].

As to `Cc1ccc2c(n1)c(N1CCN(C(c3ccc(F)cc3)c3ccc(F)cc3)CC1)c(C#N)c(=O)n2C` [Example 226, 4-(4-(bis(4-fluorophenyl)methyl)piperazin-1-yl)-1,6-dimethyl-2-oxo-1,2-dihydro-1,5-naphthyridine-3-carbonitrile], the IC50 in assay [1] (Homo sapiens, Raji) is 0.084 µM; against human DGKα [2] it was 3.9 µM; on human DGKζ [3], 10 µM; at human DGKζ [4] it was 70 µM; at human DGKα [5] it was 1.6 µM.

Regarding `N#CCCCn1c(=O)c([N+](=O)[O-])c(N2CCN(C(c3ccccc3)c3ccccc3)CC2)c2ncccc21` [Example 183, 4-(4-(4-benzhydrylpiperazin-1-yl)-3-nitro-2-oxo-1,5-naphthyridin-1(2H)-yl)butanenitrile], the IC50 in assay [1] (Homo sapiens, Raji) is 3.2 µM; on human DGKα [2], more than 240 µM; on human DGKζ [3], 21 µM; at human DGKζ [4] it was more than 240 µM; at human DGKα [5], 52 µM.

With `CC(c1ccc(F)cc1)N1CCN(c2c(C#N)c(=O)n(C)c3ccc(Br)nc23)CC1` (single isomer, unassigned) [Example 23, 6-bromo-4-{4-[1-(4-fluorophenyl)ethyl]piperazin-1-yl}-1-methyl-2-oxo-1,2-dihydro-1,5-naphthyridine-3-carbonitrile], the IC50 in assay [1] was 0.041 µM; on human DGKα [2], 1.9 µM; at human DGKζ [3], 13 µM; on human DGKζ [4], more than 240 µM; on human DGKα [5], 0.61 µM.

As for `Cc1ccc2c(n1)c(N1CCN(Cc3cccc(F)c3O)CC1)c(C#N)c(=O)n2C` [Example 329, 4-{4-[(3-fluoro-2-hydroxyphenyl)methyl]piperazin-1-yl}-1,6-dimethyl-2-oxo-1,2-dihydro-1,5-naphthyridine-3-carbonitrile], the IC50 in assay [1] (Homo sapiens, Raji) stood at 0.47 µM; against human DGKα [2] it was 5.6 µM; on human DGKζ [3], 49 µM; on human DGKζ [4], 30 µM; on human DGKα [5], 0.56 µM.

Regarding `Cc1ccc(O)c(CN2CCN(c3c(C#N)c(=O)n(C)c4ccc(Cl)nc34)CC2)c1` [Example 283, 6-chloro-4-{4-[(2-hydroxy-5-methylphenyl)methyl]piperazin-1-yl}-1-methyl-2-oxo-1,2-dihydro-1,5-naphthyridine-3-carbonitrile], the IC50 amounted to 0.094 µM in assay [1] (Homo sapiens, Raji); 0.21 µM at human DGKα [2]; 3 µM on human DGKζ [3]; 27 µM on human DGKζ [4]; 0.12 µM on human DGKα [5].

With `Cn1c(=O)c(C#N)c(N2CCN(Cc3cc(O)cc(F)c3)CC2)c2nc(Cl)ccc21` [Example 338, 6-chloro-4-{4-[(3-fluoro-5-hydroxyphenyl)methyl]piperazin-1-yl}-1-methyl-2-oxo-1,2-dihydro-1,5-naphthyridine-3-carbonitrile], the IC50 in assay [1] (Homo sapiens, Raji) is 0.58 µM; on human DGKα [2], 5.1 µM; on human DGKζ [3], 66 µM; at human DGKζ [4] it was more than 240 µM; at human DGKα [5] it was 1.1 µM.

As to `Cn1c(=O)c(C#N)c(N2CCN(Cc3ccc(F)cc3O)CC2)c2nc(Cl)ccc21` [Example 193, 6-chloro-4-(4-(4-fluoro-2-hydroxybenzyl)piperazin-1-yl)-1-methyl-2-oxo-1,2-dihydro-1,5-naphthyridine-3-carbonitrile], the IC50 was 0.13 µM in assay [1] (Homo sapiens, Raji); 0.089 µM at human DGKα [2]; 6.5 µM on human DGKζ [3]; more than 240 µM on human DGKζ [4]; 0.22 µM at human DGKα [5].

For `Cn1c(=O)c(C#N)c(N2CCN(Cc3ccccc3Cl)CC2)c2nc(Br)ccc21` [Example 300, 6-bromo-4-{4-[(2-chlorophenyl)methyl]piperazin-1-yl}-1-methyl-2-oxo-1,2-dihydro-1,5-naphthyridine-3-carbonitrile], the IC50 in assay [1] (Homo sapiens, Raji) is 0.16 µM; on human DGKα [2] it was 24 µM; on human DGKζ [3], 98 µM; at human DGKζ [4] it was more than 240 µM; on human DGKα [5] it was 2 µM.

As for `Cn1c(=O)c(C#N)c(N2CCN(Cc3ccc(Cl)c(O)c3)CC2)c2nc(Cl)ccc21` [Example 323, 6-chloro-4-{4-[(4-chloro-3-hydroxyphenyl)methyl]piperazin-1-yl}-1-methyl-2-oxo-1,2-dihydro-1,5-naphthyridine-3-carbonitrile], the IC50 came out at 0.34 µM in assay [1] (Homo sapiens, Raji); 1.2 µM on human DGKα [2]; 27 µM on human DGKζ [3]; 11 µM at human DGKζ [4]; 0.14 µM on human DGKα [5].

`COc1ccc(CN2CCN(c3c(C#N)c(=O)n(C)c4ccc(Br)nc34)CC2)c(O)c1` [Example 295, 6-bromo-4-{4-[(2-hydroxy-4-methoxyphenyl)methyl]piperazin-1-yl}-1-methy-2-oxo-1,2-dihydro-1,5-naphthyridine-3-carbonitrile]: the IC50 in assay [1] (Homo sapiens, Raji) was 0.14 µM; against human DGKα [2], 0.16 µM; at human DGKζ [3], 6.9 µM; on human DGKζ [4], 55 µM; at human DGKα [5], 0.13 µM.

For the molecule `Cn1c(=O)c(C#N)c(N2CCN(Cc3ccc(C(C)(C)C)cc3O)CC2)c2nc(Cl)ccc21` [Example 261, 4-{4-[(4-tert-butyl-2-hydroxyphenyl)methyl]piperazin-1-yl}-6-chloro-1-methyl-2-oxo-1,2-dihydro-1,5-naphthyridine-3-carbonitrile], the IC50 was 0.021 µM in assay [1] (Homo sapiens, Raji); 0.71 µM against human DGKα [2]; 10 µM on human DGKζ [3]; more than 240 µM on human DGKζ [4]; 0.43 µM on human DGKα [5].

For the molecule `Cc1ccc2c(n1)c(N1CCN(C(c3ccc(F)cc3)c3ccc(F)cc3)CC1)c(Cl)c(=O)n2C` [Example 233, 4-(4-(bis(4-fluorophenyl)methyl)piperazin-1-yl)-3-chloro-1,6-dimethyl-1,5-naphthyridin-2(1H)-one], the IC50 in assay [1] (Homo sapiens, Raji) was 0.48 µM; against human DGKα [2], 3 µM; on human DGKζ [3], 6.6 µM; on human DGKζ [4] it was more than 240 µM; on human DGKα [5] it was 8.4 µM.
